The assay has as its system p53-regulated genes (p21, miR-34a, miR-200c). Briefly: qPCR expression of p300, p53, p21, miR-34a, miR-200c in UMSCC47 cells. The class given is cell-based, human. The following applies: UMSCC47, 10 μM, 24 hours, vs control. The text has this:
FIG. 5A is an schematic illustration showing that CH1 has two distinct target sites. HIF1-α/p300 structures were used as guides to design helix mimetics that target site A and site B on the CH1 domain of p300. […] CH1iA (SEQ ID NO: 7) and CH1iB (SEQ ID NO: 8) were designed to mimic two helices from the C-terminal domain of HIF-1α. The peptides were locked into the helical conformation by the hydrogen bond surrogate method. FIG. 5C is a graph of p53 activity. UMSCC47 (left) and UMSCC74A (right) cells were co-transfected with a p53 Firefly luciferase reporter plasmid and a control Renilla luciferase plasmid. After 24 hours, cells were treated with control (vehicle), CH1iA (10 μM), or CH1iB (10 μM) for 24 hours. Firefly luciferase activity was normalized to Renilla luciferase activity to control for transfection efficiency. Data is normalized to control and presented as mean±SEM. *P<0.05, n=3. […] UMSCC47 (top panel) and UMSCC74A (bottom panel) cells were treated with control (vehicle), CH1iA (10 μM), or CH1iB (10 μM) for 24 hours. mRNA expression was determined using qPCR with validated TaqMan assays. […]
FIG. 6A is a western blot showing total and acetylated p53 levels. […] UMSCC47 cells were treated with control (vehicle), CH1iB (10 μM), cis-platinum (10 μM), or CH1iB (10 μM) and cis-platinum (10 μM) for 24 hours. mRNA expression was determined using qPCR with validated TaqMan assays. […]
On the technique in general: In qPCR the cycle at which signal appears reflects the starting amount.

Regarding “XELA*RALDQ-NH2 (ELXRALDQ; HBS: 4-pentenoic acid, N-allylalanine; C-terminal amide; CH1iB) [X 4-pentenoic acid, A* N-allylalanine]”, the “p21, miR-34a, and miR-200c expression” value is “modest but significant increase”.

For the origin of these results see US9605026B2, “Hydrogen-bond surrogate peptides and peptidomimetics for p53 reactivation” (New York University, priority 2013, dated 2017).
